One experiment has as its target T1, human recombinant HDAC1 (Homo sapiens, UniProt Q13547).
T1 construct: purchased Enzo Life Sciences, Inc. BML-SE456
Put plainly: In vitro HDAC enzyme activity inhibition assay, HDAC1 (HDAC Fluorimetric Drug Discovery Kit). It is filed as biochemical. The settings on record: human recombinant HDAC1, Fluor de Lys-SIRT1 substrate 10 μM, 30° C. for 60 minutes. As to the method:
(§1) In order to confirm the selectivity of the compounds represented by Chemical Formula I of the present invention to HDAC6 through HDAC1 and HDAC6 enzyme activity inhibition experiments, a comparison experiment was performed using the material that has already been developed as a control group.
(§2) HDAC enzyme activity was measured using the HDAC Fluorimetric Drug Discovery Kit (Enzo Life Sciences, Inc., BML-AK511, 516). For the HDAC1 enzyme activity test, human recombinant HDAC1 (BML-SE456) was used as an enzyme source and Fluor de Lys®-SIRT1 (BNL-KI177) was used as a substrate. After dispensing 5-fold diluted compounds into a 96-well plate, 0.3 μg of enzyme and 10 μM substrate were added to each well of the plate and allowed to react at 30° C. for 60 minutes. Next, Fluor de Lys® Developer II (BML-KI176) was added and reacted for 30 minutes to complete the reaction, and then the fluorescence values (Ex 360, Em 460) were measured using a multi-plate reader (Flexstation 3, Molecular Device). The HDAC6 enzymes were tested using human recombinant HDAC6 (382180) from Calbiochem Inc., according to the same protocol as the HDAC1 enzyme activity test method. With respect to the final result values, respective IC50 values were calculated using GraphPad Prism 4.0 program, and results thereof were summarized in Table 5 below.

Another experiment deals with T2, human recombinant HDAC6 (Homo sapiens, UniProt Q9UBN7).
T2 construct: purchased Calbiochem Inc. 382180
T2 sequence (Q9UBN7 1-1215): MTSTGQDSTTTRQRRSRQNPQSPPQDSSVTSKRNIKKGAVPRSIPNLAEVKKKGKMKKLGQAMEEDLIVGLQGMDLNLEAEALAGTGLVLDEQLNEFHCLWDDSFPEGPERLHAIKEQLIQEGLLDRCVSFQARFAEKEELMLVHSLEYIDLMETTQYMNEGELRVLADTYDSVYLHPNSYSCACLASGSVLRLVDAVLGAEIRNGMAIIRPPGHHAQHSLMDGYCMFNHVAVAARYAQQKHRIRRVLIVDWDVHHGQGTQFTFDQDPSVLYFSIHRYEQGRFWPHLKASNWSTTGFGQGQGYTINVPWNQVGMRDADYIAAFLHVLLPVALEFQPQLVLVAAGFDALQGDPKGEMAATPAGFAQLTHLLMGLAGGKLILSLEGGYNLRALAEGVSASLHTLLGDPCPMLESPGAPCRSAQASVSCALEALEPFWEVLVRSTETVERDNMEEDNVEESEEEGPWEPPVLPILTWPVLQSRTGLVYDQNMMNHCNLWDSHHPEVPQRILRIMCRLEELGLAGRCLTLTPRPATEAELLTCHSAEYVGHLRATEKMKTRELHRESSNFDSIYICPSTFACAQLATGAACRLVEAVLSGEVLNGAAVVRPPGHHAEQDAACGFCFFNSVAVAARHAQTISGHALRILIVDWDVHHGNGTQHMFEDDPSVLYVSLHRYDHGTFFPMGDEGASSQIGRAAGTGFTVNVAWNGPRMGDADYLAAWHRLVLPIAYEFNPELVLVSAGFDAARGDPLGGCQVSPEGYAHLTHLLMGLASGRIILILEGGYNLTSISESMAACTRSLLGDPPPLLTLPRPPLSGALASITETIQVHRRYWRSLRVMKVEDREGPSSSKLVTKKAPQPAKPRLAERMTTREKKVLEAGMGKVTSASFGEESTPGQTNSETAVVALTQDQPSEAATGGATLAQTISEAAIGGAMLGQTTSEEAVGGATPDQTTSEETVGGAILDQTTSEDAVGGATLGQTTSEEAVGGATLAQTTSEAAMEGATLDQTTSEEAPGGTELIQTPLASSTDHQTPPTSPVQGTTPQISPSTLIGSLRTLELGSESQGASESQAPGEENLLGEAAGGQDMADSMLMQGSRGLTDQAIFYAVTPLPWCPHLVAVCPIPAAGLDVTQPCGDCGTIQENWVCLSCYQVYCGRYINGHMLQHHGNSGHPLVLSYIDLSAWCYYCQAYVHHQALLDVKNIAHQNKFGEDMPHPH
The experiment in a line: In vitro HDAC enzyme activity inhibition assay, HDAC6 (HDAC Fluorimetric Drug Discovery Kit). As to conditions: for HDAC6 Selectivity (fold): HDAC6 versus HDAC1; for IC50: human recombinant HDAC6, same protocol as the HDAC1 test. In kind it is biochemical. As to the method: as §1, §2

Molecules are shown by their SMILES.

T1 sequence (Q13547 whole entry): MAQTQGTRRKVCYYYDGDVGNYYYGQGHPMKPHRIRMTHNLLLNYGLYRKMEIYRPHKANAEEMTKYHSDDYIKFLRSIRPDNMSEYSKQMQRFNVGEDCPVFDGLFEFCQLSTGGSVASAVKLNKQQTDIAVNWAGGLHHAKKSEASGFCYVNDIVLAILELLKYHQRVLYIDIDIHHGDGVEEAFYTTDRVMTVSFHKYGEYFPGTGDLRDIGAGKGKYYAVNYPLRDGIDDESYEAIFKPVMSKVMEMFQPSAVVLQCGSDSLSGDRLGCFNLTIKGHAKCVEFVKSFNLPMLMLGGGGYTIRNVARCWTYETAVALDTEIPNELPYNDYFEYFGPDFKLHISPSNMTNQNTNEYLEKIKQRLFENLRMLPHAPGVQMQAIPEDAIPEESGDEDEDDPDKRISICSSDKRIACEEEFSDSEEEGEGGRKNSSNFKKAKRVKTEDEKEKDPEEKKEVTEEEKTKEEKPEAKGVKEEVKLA

As a reminder, the IC50 is the point on the concentration scale where inhibition reaches its midpoint. Consider `O=C(C1CN(C2CCC2)C1)N(Cc1cn2ccc(-c3nnc(C(F)F)o3)cc2n1)c1cccc(F)c1` [Compound 4192, 1-cyclobutyl-N-((7-(5-(difluoromethyl)-1,3,4-oxadiazol-2-yl)imidazo[1,2-a]pyridin-2-yl)methyl)-N-(3-fluorophenyl) azetidine-3-carboxamide], for which the IC50 at human recombinant HDAC1 is more than 50000 nM. In addition, at human recombinant HDAC6, the “HDAC6 Selectivity (fold)” value was 452 fold and the IC50 turned out to be 111 nM.
`O=C(N1CCN(C2CC3(CCC3)C2)CC1)N(Cc1cn2ccc(-c3nnc(C(F)F)o3)cc2n1)c1cccc(F)c1` [Compound 4620]: the IC50 on human recombinant HDAC1 was more than 50000 nM. On human recombinant HDAC6, the “HDAC6 Selectivity (fold)” value is reported as 190 fold and the IC50 is 263 nM.
For the compound `O=C(C1CCN(c2ncccn2)CC1)N(Cc1cn2ccc(-c3nnc(C(F)F)o3)cc2n1)c1ccccc1` [Compound 4132, N-((7-(5-(difluoromethyl)-1,3,4-oxadiazol-2-yl)imidazo[1,2-a]pyridin-2-yl)methyl)-N-phenyl-1-(pyrimidin-2-yl)piperidine-4-carboxamide], on human recombinant HDAC1, the IC50 is more than 50000 nM. Moreover, on human recombinant HDAC6, the “HDAC6 Selectivity (fold)” value is 76 fold and the IC50 amounted to 655 nM.
For `Fc1cccc(OCc2cn3ccc(-c4nnc(C(F)F)o4)cc3n2)c1` [Compound 3722, 2-(difluoromethyl)-5-(2-((3-fluorophenoxy)methyl)imidazo[1,2-a]pyridin-7-yl)-1,3,4-oxadiazole] the same measures were more than 50000 nM, 174 fold and 287 nM.
Consider `CS(=O)(=O)N1CCC(C(=O)N(Cc2cn3ccc(-c4nnc(C(F)F)o4)cc3n2)c2ccccc2)CC1` [Compound 4128, N-((7-(5-(difluoromethyl)-1,3,4-oxadiazol-2-yl)imidazo[1,2-a]pyridin-2-yl)methyl)-1-(methylsulfonyl)-N-phenylpiperidine-4-carboxamide], for which the IC50 on human recombinant HDAC1 was more than 50000 nM. Further, on human recombinant HDAC6, the “HDAC6 Selectivity (fold)” value is given as 159 fold and the IC50 was 315 nM.
In the same order, the values of `FC(F)c1nnc(-c2ccn3cc(Cc4ccc(C(F)(F)F)cc4)nc3c2)o1` [Compound 3591] are more than 50000 nM, 47 fold and 1060 nM.
For `COC(=O)N1CCN(C(=O)N(Cc2cn3ccc(-c4nnc(C(F)F)o4)cc3n2)c2cccc(F)c2)CC1` [Compound 4098, methyl 4-(((7-(5-(difluoromethyl)-1,3,4-oxadiazol-2-yl)imidazo[1,2-a]pyridin-2-yl)methyl)(3-fluorophenyl)carbamoyl)piperazine-1-carboxylate] the same measures were more than 50000 nM, 325 fold and 154 nM.
With `COC(=O)N1CCN(C(=O)N(Cc2cn3ccc(-c4nnc(C(F)F)o4)cc3n2)c2ccccc2)CC1` [Compound 4046, methyl 4-(((7-(5-(difluoromethyl)-1,3,4-oxadiazol-2-yl)imidazo[1,2-a]pyridin-2-yl)methyl)(phenyl)carbamoyl)piperazine-1-carboxylate], the values for the IC50 at human recombinant HDAC1 and on human recombinant HDAC6 were more than 50000 nM and 125 nM, respectively. The “HDAC6 Selectivity (fold)” value at human recombinant HDAC6 was determined as 400 fold.
For the compound `CN1CC2(C1)CN(C(=O)N(Cc1cn3ccc(-c4nnc(C(F)F)o4)cc3n1)c1ccccc1)C2` [Compound 4625, N-((7-(5-(difluoromethyl)-1,3,4-oxadiazol-2-yl)imidazo[1,2-a]pyridin-2-yl)methyl)-6-methyl-N-phenyl-2,6-diazaspiro[3.3]heptan-2-carboxamide], the IC50 at human recombinant HDAC1 is more than 50000 nM. Further, on human recombinant HDAC6, the “HDAC6 Selectivity (fold)” value worked out at 510 fold and the IC50 came out at 98 nM.
In the same order, the values of `CC(=O)N1CCC(C(=O)N(Cc2cn3ccc(-c4nnc(C(F)F)o4)cc3n2)c2cccc(F)c2)CC1` [Compound 4146, 1-acetyl-N-((7-(5-(difluoromethyl)-1,3,4-oxadiazol-2-yl)imidazo[1,2-a]pyridin-2-yl)methyl)-N-(3-fluorophenyl)piperidine-4-carboxamide] are more than 50000 nM, 206 fold and 243 nM.
For `CC(CO)N1CCN(C(=O)N(Cc2cn3ccc(-c4nnc(C(F)F)o4)cc3n2)c2cccc(F)c2)CC1` (stereo not drawn) [Compound 4086, N-((7-(5-(difluoromethyl)-1,3,4-oxadiazol-2-yl)imidazo[1,2-a]pyridin-2-yl)methyl)-N-(3-fluorophenyl)-4-(1-hydroxypropan-2-yl)piperazine-1-carboxamide] the same measures were more than 50000 nM, 249 fold and 201 nM.
In the case of `COc1ccc(Cc2cn3ccc(-c4nnc(C(F)F)o4)cc3n2)cc1` [Compound 3590], the IC50 on human recombinant HDAC1 was more than 50000 nM. In addition, on human recombinant HDAC6, the “HDAC6 Selectivity (fold)” value is recorded as 116 fold and the IC50 came out at 432 nM.
In the same order, the values of `O=C(C1CN(c2ccccn2)C1)N(Cc1cn2ccc(-c3nnc(C(F)F)o3)cc2n1)c1ccccc1` [Compound 4176, N-((7-(5-(difluoromethyl)-1,3,4-oxadiazol-2-yl)imidazo[1,2-a]pyridin-2-yl)methyl)-N-phenyl-1-(pyridin-2-yl) azetidine-3-carboxamide] are more than 50000 nM, 199 fold and 251 nM.
For `O=C(C1CN(C(=O)C(F)(F)F)C1)N(Cc1cn2ccc(-c3nnc(C(F)F)o3)cc2n1)c1cccc(F)c1` [Compound 4202, N-((7-(5-(difluoromethyl)-1,3,4-oxadiazol-2-yl)imidazo[1,2-a]pyridin-2-yl)methyl)-N-(3-fluorophenyl)-1-(2,2,2-trifluoroacetyl) azetidine-3-carboxamide] the same measures were more than 50000 nM, 274 fold and 182 nM.
For `COC(=O)N1CC(C(=O)N(Cc2cn3ccc(-c4nnc(C(F)F)o4)cc3n2)c2cccc(F)c2)C1` [Compound 4204, methyl 3-(((7-(5-(difluoromethyl)-1,3,4-oxadiazol-2-yl)imidazo[1,2-a]pyridin-2-yl)methyl)(3-fluorophenyl)carbamoyl) azetidine-1-carboxylate], the IC50 at human recombinant HDAC1 was more than 50000 nM. At human recombinant HDAC6, the “HDAC6 Selectivity (fold)” value is on record as 268 fold and the IC50 turned out to be 187 nM.
Regarding `O=C(N1CCN(C2CCOCC2)CC1)N(Cc1cn2ccc(-c3nnc(C(F)F)o3)cc2n1)c1ccccc1` [Compound 4038, N-((7-(5-(difluoromethyl)-1,3,4-oxadiazol-2-yl)imidazo[1,2-a]pyridin-2-yl)methyl)-N-phenyl-4-(tetrahydro-2H-pyran-4-yl)piperazine-1-carboxamide], at human recombinant HDAC1, the IC50 is more than 50000 nM. For the same compound, at human recombinant HDAC6, the “HDAC6 Selectivity (fold)” value is 382 fold and the IC50 came out at 131 nM.
In the same order, the values of `CC(CO)N1CC(C(=O)N(Cc2cn3ccc(-c4nnc(C(F)F)o4)cc3n2)c2ccccc2)C1` (stereo not drawn) [Compound 4161, N-((7-(5-(difluoromethyl)-1,3,4-oxadiazol-2-yl)imidazo[1,2-a]pyridin-2-yl)methyl)-1-(1-hydroxypropan-2-yl)-N-phenylazetidine-3-carboxamide] are more than 50000 nM, 224 fold and 223 nM.

(Values after patent US12522601B2, “1,3,4-oxadiazole derivative compounds as histone deacetylase 6 inhibitor, and the pharmaceutical composition comprising the same” (CHONG KUN DANG PHARMACEUTICAL CORP., priority 2020, dated 2026).)
